{"source": "patent US10947252B2", "about": "“Inhibitors of KEAP1-Nrf2 protein-protein interaction” (Janssen Pharmaceutica NV, priority 2018, dated 2021)", "key": {"[1]": {"target": "Kelch domain of human KEAP1 (321-624 aa) (Homo sapiens (Human), UniProt Q14145)", "sequence (Q14145 321-624)": "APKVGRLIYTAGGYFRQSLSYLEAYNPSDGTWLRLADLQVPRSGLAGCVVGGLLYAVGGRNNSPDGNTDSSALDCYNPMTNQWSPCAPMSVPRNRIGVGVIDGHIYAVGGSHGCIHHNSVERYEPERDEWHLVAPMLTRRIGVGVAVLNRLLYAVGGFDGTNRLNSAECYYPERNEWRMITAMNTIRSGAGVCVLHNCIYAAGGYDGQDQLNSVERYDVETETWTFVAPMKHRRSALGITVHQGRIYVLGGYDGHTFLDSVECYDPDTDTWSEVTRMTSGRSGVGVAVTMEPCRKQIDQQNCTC", "test": "KEAP1 KELCH ThermoFluor binding assay;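 further: Ligand-induced melting temperature shift of E. coli-expressed KEAP1 Kelch protein, Kd estimated from concentration-response curves of ΔTm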", "settings": "KEAP Kelch […], 1,8-ANS, pH 7.0, average of results obtained, read-out: Tf Kd"}, "[2]": {"system": "Glo-Response ARE-luc2P HEK293 cell line", "test": "ARE luciferase reporter cell-based assay;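 further: luciferase signal tracks Nrf2 activation of the ARE once compounds disrupt KEAP1-Nrf2 binding, read with One-Glo reagent, DMSO serving as low control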", "settings": "Homo sapiens, HEK293, 24 h, average of results obtained"}}}
{"smiles": "Cc1cnc2c(c1)S(=O)(=O)N(Cc1cc([C@H](c3ccn4c(C(F)(F)F)nnc4c3C)C(C)(C)C(=O)O)cnc1C)CC1(CCOCC1)O2", "note": "(single isomer, unassigned) [Example 585, (*S)-2,2-Dimethyl-3-(8-methyl-3-(trifluoromethyl)-[1,2,4]triazolo[4,3-a]pyridin-7-yl)-3-(6-methyl-5-((8′-methyl-1′,1′-dioxido-2,3,5,6-tetrahydrospiro[pyran-4,4′-pyrido[2,3-b][1,4,5]oxathiazepin]-2′(3′H)-yl)methyl)pyridin-3-yl)propanoic Acid]", "values": [{"measurement": "Kd", "setting": "[1]", "value": "< 1", "unit": "nM"}, {"measurement": "EC50", "setting": "[2]", "value": 253, "unit": "nM"}]}
{"smiles": "Cc1cc2cc(C(CC(=O)O)c3ccc(C)c(CN4C[C@H]5CCCN5c5ncccc5S4(=O)=O)c3)n(C)c2nn1", "note": "(mixture of isomers) [Example 434, 3-(3,7-Dimethyl-7H-pyrrolo[2,3-c]pyridazin-6-yl)-3-(3-(((R)-5,5-dioxido-7a,8,9,10-tetrahydropyrido[2,3-f]pyrrolo[2,1-d][1,2,5]thiadiazepin-6(7H)-yl)methyl)-4-methylphenyl)propanoic Acid]", "values": [{"measurement": "Kd", "setting": "[1]", "value": 1.51, "unit": "nM"}, {"measurement": "EC50", "setting": "[2]", "value": 3870, "unit": "nM"}]}
{"smiles": "Cc1ccc([C@H](c2ccn3c(C(F)(F)F)nnc3c2C)C(C)(C)C(=O)O)cc1CN1CC2(CC2)Oc2nc(N[C@@H](C)CN3CCCCC3)c(C)cc2S1(=O)=O", "note": "(single isomer, unassigned) [Example 380, (*R)-2,2-Dimethyl-3-(4-methyl-3-((8′-methyl-1′,1′-dioxido-7′-(((S)-1-piperidin-1-yl)propan-2-yl)amino)spiro[cyclopropane-1,4′-pyrido [2,3-b][1,4,5]oxathiazepin]-2′(3′H)-yl)methyl)phenyl)-3-(8-methyl-3-(trifluoromethyl)-[1,2,4]triazolo[4,3-a]pyridine-7-yl)propanoic Acid]", "values": [{"measurement": "Kd", "setting": "[1]", "value": "< 1", "unit": "nM"}, {"measurement": "EC50", "setting": "[2]", "value": 14.1, "unit": "nM"}]}
{"smiles": "Cc1ccc([C@@H](c2ccn3c(C(F)F)nnc3c2C)C(C)(C)C(=O)O)cc1CN1CC2(CCOCC2)Oc2ncccc2S1(=O)=O", "note": "(single isomer, unassigned) [Example 53, (*S)-3-(3-(Difluoromethyl)-8-methyl-[1,2,4]triazolo[4,3-a]pyridin-7-yl)-3-(3-((1′,1′-dioxido-2,3,5,6-tetrahydrospiro[pyran-4,4′-pyrido[2,3-b][1,4,5]oxathiazepin]-2′(3′H)-yl)methyl)-4-methylphenyl)-2,2-dimethylpropanoic Acid]", "values": [{"measurement": "Kd", "setting": "[1]", "value": "< 1", "unit": "nM"}, {"measurement": "EC50", "setting": "[2]", "value": 3.9, "unit": "nM"}]}
{"smiles": "Cc1ccc([C@H](CC(=O)O)c2ccc3c(nnn3CC3CC3)c2C)cc1CN1C[C@H]2CCCN2c2ncccc2S1(=O)=O", "note": "(single isomer, unassigned) [Example 402, (*S)-3-(1-(Cyclopropylmethyl)-4-methyl-1H-benzo[d][1,2,3]triazol-5-yl)-3-(3-(((R)-5,5-dioxido-7a,8,9,10-tetrahydropyrido[2,3-f]pyrrolo[2,1-d][1,2,5]thiadiazepin-6(7H)-yl)methyl)-4-methylphenyl)propanoic Acid]", "values": [{"measurement": "Kd", "setting": "[1]", "value": "< 1", "unit": "nM"}, {"measurement": "EC50", "setting": "[2]", "value": 27.9, "unit": "nM"}]}
{"smiles": "Cc1cnc2c(c1)S(=O)(=O)N(Cc1cc([C@H](CC(=O)O)c3ccn4c(C(F)(F)F)nnc4c3C)ccc1C#N)CC1(CC1)O2", "note": "(single isomer, unassigned) [Example 105, (*S)-3-(4-Cyano-3-((8′-methyl-1′,1′-dioxidospiro[cyclopropane-1,4′-pyrido[2,3-b][1,4,5]oxathiazepin]-2′(3′H)-yl)methyl)phenyl)-3-(8-methyl-3-(trifluoromethyl)-[1,2,4]trizolo[4,3-a]pyridine-7-yl)propanoic Acid]", "values": [{"measurement": "Kd", "setting": "[1]", "value": 16, "unit": "nM"}, {"measurement": "EC50", "setting": "[2]", "value": 14400, "unit": "nM"}]}
{"smiles": "Cc1ccc([C@@H](CC(=O)O)c2ccn3c(C(F)F)nnc3c2C)cc1CN1C[C@H]2CCCN2c2ncc(C#N)cc2S1(=O)=O", "note": "(single isomer, unassigned) [Example 541, (*R)-3-(3-(((*R)-3-Cyano-5,5-dioxido-7a,8,9,10-tetrahydropyrido[2,3-f]pyrrolo[2,1-d][1,2,5]thiadiazepin-6(7H)-yl)methyl)-4-methylphenyl)-3-(3-(difluoromethyl)-8-methyl-[1,2,4]triazolo[4,3-a]pyridin-7-yl)propanoic Acid]", "values": [{"measurement": "Kd", "setting": "[1]", "value": "< 1", "unit": "nM"}, {"measurement": "EC50", "setting": "[2]", "value": 223, "unit": "nM"}]}
